Consider 23 compounds from US8623859B2, “Bradykinin B1 antagonists” (Evotec AG, priority 2008, dated 2014).

The target in the assay is T1, human B1 (Homo sapiens, UniProt P46663).
T1 construct: host or cells: CHO-K1
T1 sequence (P46663 1-353): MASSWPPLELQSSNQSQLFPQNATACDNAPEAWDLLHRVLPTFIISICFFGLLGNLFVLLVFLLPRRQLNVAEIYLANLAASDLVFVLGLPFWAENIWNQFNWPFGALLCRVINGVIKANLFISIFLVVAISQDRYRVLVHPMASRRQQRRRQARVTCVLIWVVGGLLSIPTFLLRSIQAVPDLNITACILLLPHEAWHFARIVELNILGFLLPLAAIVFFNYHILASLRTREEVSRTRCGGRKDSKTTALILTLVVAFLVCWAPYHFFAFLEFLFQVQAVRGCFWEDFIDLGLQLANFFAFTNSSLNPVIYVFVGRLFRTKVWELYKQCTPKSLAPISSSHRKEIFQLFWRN
As to the kind of experiment: Calcium flux assay for Bradykinin B1 antagonist, CHO-K1 cell line expressing human B1. The assay is classed as cell-based. Particulars: CHO-K1 cells expressing human B1, agonist Lys-(Des-Arg)-Bradykinin, read-out: Potency (IC50 value against human B1). Summed up:
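Inhibition of B1 agonist-evoked intracellular Ca2+ rise was followed by continuous fluorescence at 538 nm, with integrated, background-normalized signals plotted versus log compound concentration. Test compounds (eight 10-fold dilutions, triplicate, 1% DMSO final) were added 30 min at 25° C beforehand to Fluo-4AM-loaded human B1 CHO-K1 cells in pH 7.4 assay buffer.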

pIC50: −log10 of the molar value. Structures can show the parent of a compound that is named as a salt.

Turning to `COc1cc(C)c(S(=O)(=O)N(Cc2nc(C(=O)N(C)Cc3ccc(CN4CCCC(O)C4)cc3)co2)C2CC2)c(C)c1` (centres unmarked) [Ex 180, 2-({Cyclopropyl[(4-methoxy-2,6-dimethylphenyl)sulfonyl]amino}methyl)-N-{4-[(3-hydroxypiperidin-1-yl)methyl]benzyl}-N-methyl-1,3-oxazole-4-carboxamide], the pIC50 is > 8.00. Take `COc1cc(C)c(S(=O)(=O)N(Cc2nc(C(=O)N(C)Cc3ccc(CN4CCC(O)CC4)cc3)co2)C2CC2)c(C)c1` [Ex 181, 2-({Cyclopropyl[(4-methoxy-2,6-dimethylphenyl)sulfonyl]amino}methyl)-N-{4-[(4-hydroxypiperidin-1-yl)methyl]benzyl}-N-methyl-1,3-oxazole-4-carboxamide]: the negative logarithm of the IC50 (pIC50) was > 8.00.

For the compound `COc1cc(C)c(S(=O)(=O)N(Cc2nc(C(=O)N(C)Cc3ccc(CN4CCC(OC)C4)cc3)co2)C2CC2)c(C)c1` (centres unmarked) [Ex 182, 2-({Cyclopropyl[(4-methoxy-2,6-dimethylphenyl)sulfonyl]amino}methyl)-N-{4-[(3-methoxypyrrolidin-1-yl)methyl]benzyl}-N-methyl-1,3-oxazole-4-carboxamide], the pIC50 was > 8.00. Then `COc1cc(C)c(S(=O)(=O)N(Cc2nc(C(=O)N(C)Cc3ccc(CN4CCC(OC)CC4)cc3)co2)C2CC2)c(C)c1` [Ex 183, 2-({Cyclopropyl[(4-methoxy-2,6-dimethylphenyl)sulfonyl]amino}methyl)-N-{4-[(4-methoxypiperidin-1-yl)methyl]benzyl}-N-methyl-1,3-oxazole-4-carboxamide], with > 8.00; and `COc1cc(C)c(S(=O)(=O)N(Cc2nc(C(=O)N(C)Cc3ccc(CN4CCCC(OC)C4)cc3)co2)C2CC2)c(C)c1` (centres unmarked) [Ex 184, 2-({Cyclopropyl[(4-methoxy-2,6-dimethylphenyl)sulfonyl]amino}methyl)-N-{4-[(3-methoxypiperidin-1-yl)methyl]benzyl}-N-methyl-1,3-oxazole-4-carboxamide], with > 8.00.

For `COc1cc(C)c(S(=O)(=O)N(Cc2nc(C(=O)N(C)Cc3ccc(CN4CCC(NC(C)=O)C4)cc3)co2)C2CC2)c(C)c1` (centres unmarked) [Ex 185, N-(4-{[3-(Acetylamino)pyrrolidin-1-yl]methyl}benzyl)-2-({cyclopropyl[(4-methoxy-2,6-dimethylphenyl)sulfonyl]amino}methyl)-N-methyl-1,3-oxazole-4-carboxamide], the pIC50 is > 8.00. To `COc1cc(C)c(S(=O)(=O)N(Cc2nc(C(=O)N(C)Cc3ccc(CN4CCC(C(=O)N(C)C)C4)cc3)co2)C2CC2)c(C)c1` (centres unmarked) [Ex 186, 2-({Cyclopropyl[(4-methoxy-2,6-dimethylphenyl)sulfonyl]amino}methyl)-N-(4-{[3-(dimethylcarbamoyl)pyrrolidin-1-yl]methyl}benzyl)-N-methyl-1,3-oxazole-4-carboxamide] belongs > 8.00. With `COc1cc(C)c(S(=O)(=O)N(Cc2nc(C(=O)N(C)Cc3ccc(CN4CC(OC)C4)cc3)co2)C2CC2)c(C)c1` [Ex 187, 2-({Cyclopropyl[(4-methoxy-2,6-dimethylphenyl)sulfonyl]amino}methyl)-N-{4-[(3-methoxyazetidin-1-yl)methyl]benzyl}-N-methyl-1,3-oxazole-4-carboxamide], the pIC50 is > 8.00. In the case of `COc1cc(C)c(S(=O)(=O)N(Cc2nc(C(=O)N(C)Cc3ccc(CN4CC(O)C4)cc3)co2)C2CC2)c(C)c1` [Ex 188, 2-({Cyclopropyl[(4-methoxy-2,6-dimethylphenyl)sulfonyl]amino}methyl)-N-{4-[(3-hydroxyazetidin-1-yl)methyl]benzyl}-N-methyl-1,3-oxazole-4-carboxamide], the pIC50 was 7.00 to 8.00. Then `COc1cc(C)c(S(=O)(=O)N(Cc2nc(C(=O)N(C)Cc3ccc(CN4CC(O)C(O)C4)cc3)co2)C2CC2)c(C)c1` (centres unmarked) [Ex 189, 2-({Cyclopropyl[(4-methoxy-2,6-dimethylphenyl)sulfonyl]amino}methyl)-N-{4-[(3,4-dihydroxypyrrolidin-1-yl)methyl]benzyl}-N-methyl-1,3-oxazole-4-carboxamide], with > 8.00.

Turning to `COc1cc(C)c(S(=O)(=O)N(Cc2nc(C(=O)N(C)Cc3ccc(CN4CCC(N(C)C)C4)cc3)co2)C2CC2)c(C)c1` (centres unmarked) [Ex 190, 2-({Cyclopropyl[(4-methoxy-2,6-dimethylphenyl)sulfonyl]amino}methyl)-N-(4-{[3-(dimethylamino)pyrrolidin-1-yl]methyl}benzyl)-N-methyl-1,3-oxazole-4-carboxamide], the pIC50 was > 8.00. To `COc1cc(C)c(S(=O)(=O)N(Cc2nc(C(=O)N3CCN(CC4CCN(C)CC4)CC3)co2)C2CC2)c(C)c1` [Ex 191, N-Cyclopropyl-4-methoxy-2,6-dimethyl-N-{[4-({4-[(1-methylpiperidin-4-yl)methyl]piperazin-1-yl}carbonyl)-1,3-oxazol-2-yl]methyl}benzenesulfonamide trifluoroacetate trifluoroacetate] belongs > 8.00; to `COc1cc(C)c(S(=O)(=O)N(Cc2nc(C(=O)N3CCN(CC4CCCN(C)C4)CC3)co2)C2CC2)c(C)c1` (centres unmarked) [Ex 192, N-Cyclopropyl-4-methoxy-2,6-dimethyl-N-{[4-({4-[(1-methylpiperidin-3-yl)methyl]piperazin-1-yl}carbonyl)-1,3-oxazol-2-yl]methyl}benzenesulfonamide trifluoroacetate], > 8.00. Then `COc1cc(C)c(S(=O)(=O)N(Cc2nc(C(=O)N3CCC(CCN4CCCC4)CC3)co2)C2CC2)c(C)c1` [Ex 193, N-Cyclopropyl-4-methoxy-2,6-dimethyl-N-[(4-{[4-(2-pyrrolidin-1-ylethyl)piperidin-1-yl]carbonyl}-1,3-oxazol-2-yl)methyl]benzenesulfonamide trifluoroacetate], with > 8.00; and `COc1cc(C)c(S(=O)(=O)N(Cc2nc(C(=O)N3CCN(CCN4CCCCC4)CC3)co2)C2CC2)c(C)c1` [Ex 194, N-Cyclopropyl-4-methoxy-2,6-dimethyl-N-[(4-{[4-(2-piperidin-1-ylethyl)piperazin-1-yl]carbonyl}-1,3-oxazol-2-yl)methyl]benzenesulfonamide trifluoroacetate], with > 8.00; and `COc1cc(C)c(S(=O)(=O)N(Cc2nc(C(=O)N3CCN(CCN4CCCC4)CC3)co2)C2CC2)c(C)c1` [Ex 195, N-Cyclopropyl-4-methoxy-2,6-dimethyl-N-[(4-{[4-(2-pyrrolidin-1-ylethyl)piperazin-1-yl]carbonyl}-1,3-oxazol-2-yl)methyl]benzenesulfonamide trifluoroacetate], with > 8.00. Turning to `COc1cc(C)c(S(=O)(=O)N(Cc2nc(C(=O)N3CCN(CCCN(C)C)CC3)co2)C2CC2)c(C)c1` [Ex 196, N-Cyclopropyl-N-{[4-({4-[3-(dimethylamino)propyl]piperazin-1-yl}carbonyl)-1,3-oxazol-2-yl]methyl}-4-methoxy-2,6-dimethylbenzenesulfonamide trifluoroacetate], the pIC50 was > 8.00. Then `COc1cc(C)c(S(=O)(=O)N(Cc2nc(C(=O)N3CCN(CCCN4CCCC4)CC3)co2)C2CC2)c(C)c1` [Ex 197, N-Cyclopropyl-4-methoxy-2,6-dimethyl-N-[(4-{[4-(3-pyrrolidin-1-ylpropyl)piperazin-1-yl]carbonyl}-1,3-oxazol-2-yl)methyl]benzenesulfonamide trifluoroacetate], with > 8.00; and `COc1cc(C)c(S(=O)(=O)N(Cc2nc(C(=O)N(C)Cc3ccc(CN4CCC(C)(O)C4)cc3)co2)C2CC2)c(C)c1` (centres unmarked) [Ex 198, 2-({Cyclopropyl[(4-methoxy-2,6-dimethylphenyl)sulfonyl]amino}methyl)-N-{4-[(3-hydroxy-3-methylpyrrolidin-1-yl)methyl]benzyl}-N-methyl-1,3-oxazole-4-carboxamide], with > 8.00. Then `COc1cc(C)c(S(=O)(=O)N(Cc2nc(C(=O)N(C)Cc3nnc(CN4CCCC4)s3)co2)C2CC2)c(C)c1` [Ex 199, 2-({Cyclopropyl[(4-methoxy-2,6-dimethylphenyl)sulfonyl]amino}methyl)-N-methyl-N-{[5-(pyrrolidin-1-ylmethyl)-1,3,4-thiadiazol-2-yl]methyl}-1,3-oxazole-4-carboxamide trifluoroacetate], with > 8.00. As for `COc1cc(C)c(S(=O)(=O)N(Cc2nc(C(=O)N(C)Cc3nc(CN4CCCC4)cs3)co2)C2CC2)c(C)c1` [Ex 200, 2-({Cyclopropyl[(4-methoxy-2,6-dimethylphenyl)sulfonyl]amino}methyl)-N-methyl-N-{[4-(pyrrolidin-1-ylmethyl)-1,3-thiazol-2-yl]methyl}-1,3-oxazole-4-carboxamide trifluoroacetate], the negative-log IC50 (pIC50) is > 8.00. With `COc1cc(C)c(S(=O)(=O)N(C)Cc2nc(C(=O)N(C)Cc3nnc(CN4CCCC4)s3)co2)c(C)c1` [Ex 201, 2-({[(4-Methoxy-2,6-dimethylphenyl)sulfonyl](methyl)amino}methyl)-N-methyl-N-{[5-(pyrrolidin-1-ylmethyl)-1,3,4-thiadiazol-2-yl]methyl}-1,3-oxazole-4-carboxamide trifluoroacetate], the negative logarithm of the IC50 (pIC50) was 6.00 to 7.00. Consider `COc1cc(C)c(S(=O)(=O)N(C)Cc2nc(C(=O)N(C)Cc3nc(CN4CCCC4)cs3)co2)c(C)c1` [Ex 202, 2-({[(4-Methoxy-2,6-dimethylphenyl)sulfonyl](methyl)amino}methyl)-N-methyl-N-{[4-(pyrrolidin-1-ylmethyl)-1,3-thiazol-2-yl]methyl}-1,3-oxazole-4-carboxamide trifluoroacetate], for which the pIC50 is 7.00 to 8.00.
